The text below walks through data of ChEMBL document CHEMBL1141425, “Cytotoxic clerodane diterpenoids and their hydrolysis products from Casearia nigrescens from the rainforest of Madagascar” (J Nat Prod, 2007).

The assay concerns A2780. Kind of assay: Cytotoxicity against human A2780 cells. The class given is cell-based.

Each structure is given as a SMILES string.

For `C=CC(=C)CC[C@]1(C)[C@H](C)C[C@H](O)[C@@]2(C=O)C(C=O)=C[C@H](OC(=O)CCC)C[C@@H]12` [CASEANIGRESCEN D2], the half-inhibitory concentration (IC50) (in general, the concentration at which inhibition is half-maximal) was 1500 nM.
In the case of `C=CC(=C)CC[C@]1(C)[C@H](C)C[C@H](O)[C@@]23C(=C[C@H](OC(=O)CCC)C[C@@H]12)[C@@H](OC(C)=O)O[C@H]3OC(C)=O` [CASEANIGRESCEN D] it was 1000 nM.
In the case of `C=CC(=C)CC[C@]1(C)[C@H](C)[C@@H](O)[C@H](O)[C@@]23C(=C[C@H](OC(=O)CCC)C[C@@H]12)[C@@H](OC(C)=O)O[C@H]3OC(C)=O` [CASEANIGRESCEN B] it was 830 nM; in that of `C=CC(=C)CC[C@]1(C)[C@H](C)[C@@H](OC(C)=O)[C@H](O)[C@@]2(C=O)C(C=O)=C[C@H](OC(=O)CCC)C[C@@H]12`, 3500 nM.
In the case of `C=CC(=C)CC[C@]1(C)[C@H](C)[C@@H](OC(C)=O)[C@H](O)[C@@]23C(=C[C@H](OC(=O)CCC)C[C@@H]12)[C@@H](OC(C)=O)O[C@H]3OC(C)=O` [CASEANIGRESCEN A] it was 1400 nM; in that of `C=CC(=C)CC[C@]1(C)[C@H](C)[C@@H](O)[C@H](OC(C)=O)[C@@]23C(=C[C@H](OC(=O)CCC)C[C@@H]12)[C@@H](OC(C)=O)O[C@H]3OC(C)=O` [CASEANIGRESCEN C], 1000 nM.
